Laboratory results reported in patent US7842488B2, “Polynucleotides encoding a human 3-phosphoinositide- dependent protein kinase” (Medical Research Council, priority 1997, dated 2010).

How the values were obtained:
[1] = tested on: PDK1; assay: PDK1 assay: activation of GST-PKBα by purified PDK1 with phospholipid vesicles; format: biochemical, rabbit; settings: for activation of PDK1 (in words) / fold-activation of GST-PKBα (PDK1 activity): lipid 10 μM in vesicles of 100 μM PtdCho, 100 μM PtdSer, 30 min at 30° C.; for order of level of activation of the 3-phosphoinositide-dependent kinase (most effective first): rabbit skeletal muscle PDK1, FIG. 6
Experimental: Assay of PDK1. The assay was carried out in two stages; in the first, GST-PKBα was incubated with PDK1 in the presence of MgATP and phospholipid vesicles to permit activation of GST-PKBα.
After 10 min at 30° C., the reactions were terminated by spotting the reaction mixture on to p81 phosphocellulose paper. The papers were washed in phosphoric acid and analysed as described previously. […] The basal GST-PKBα activity is the activity measured in the absence of PDK1.

[2] = target: T1, GST-ΔPH-PDK1 (Homo sapiens, UniProt O15530); assay: GST-ΔPH-PDK1 assay: activation of GST-PKBα; format: biochemical; settings: lipid 10 μM in PtdCho/PtdSer vesicles
T1 construct: expressed as a GST-fusion protein in 293 cells (GST-ΔPH-PDK1, residues 1-450); made in house; host or cells: human embryonic kidney 293 cells (pEBG-2T)
Experimental: FIG. 15. Role of the PH domains of PKBα and PDK1. […] The assays were terminated by making the incubations 1% (by vol) in Triton X-100 as in Example 1, and the increase in specific activity of GST-PKBα was determined. The basal activity of GST-PKBα was 2.5 U/mg and that of GST-ΔPH-PKBα was 8 U/mg. At the high concentration of GST-PDK1 used in this assay the rate of activation of full length wild type GST-PKBα is not linear with time whereas the activation of GST-ΔPH-PKBα is linear. When the experiments are carried out at 20-fold lower concentrations of GST-PDK1 a similar extent of activation of wild-type GST-PKBα is achieved as that shown in the figure for GST-ΔPH-PKBα by 2.3 nM GST-PDK1. (B) as in (A) except that 0.5 μg of GST-PKBα was incubated with 2.5 nM […] in the presence of phospholipid vesicles containing 100 μM PtdCho, 100 μM PtdSer and 10 μM of either, sn-1-stearoyl-2-arachidonyl-D-PtdIns(3,4,5)P3 (Track 1); sn-1-stearoyl-2-arachidonyl-L-PtdIns(3,4,5)P3 (Track 2), sn-1,2 di-palmitoyl-D-PtdIns(3,4,5)P3 (Track 3), sn-1,2 di-palmitoyl-D-PtdIns(3,4,5)P3 (Track 4), PtdIns(4,5)P2 (purified from Folch brain fraction Track 5) and sn-1,2 di-palmitoyl-D-PtdIns-3P (Track 6). The results are presented as the increase in the specific activity of GST-PKBα (U/mg), (±SEM for 6-9 determinations, three independent experiments), relative to a control incubation in which GST-PDK1 is omitted.
Assay of GST-PDK1 and GST-DSTPK61 activity. GST-PDK1 and GST-DSTPK61 were diluted appropriately in Buffer B containing 1 mg/ml bovine serum albumin, and assayed for their ability to activate and phosphorylate GST-PKBα [21]. One unit of PDK1 activity was defined as that amount required to increase the basal activity of GST-PKBα by 1 unit of activity in one min. One unit of GST-PKBα activity was that amount of enzyme required to catalyse the phosphorylation of 1 nmol of the peptide RPRAATF (SEQ ID NO: 9) in 1 min in an assay containing 0.1 mM RPRAATF (SEQ ID NO: 9)). […]

[3] = target: T2, GST-PDK1 (Homo sapiens, UniProt O15530); assay: GST-PDK1 assay: activation and phosphorylation of GST-PKBα; format: biochemical; settings: lipid 10 μM in PtdCho/PtdSer vesicles
T2 construct: Residues 52-556 of PDK1 were expressed in human embryonic kidney 293 cells; made in house; host or cells: human embryonic kidney 293 cells (pEBG2T)
T2 sequence (O15530 52-556): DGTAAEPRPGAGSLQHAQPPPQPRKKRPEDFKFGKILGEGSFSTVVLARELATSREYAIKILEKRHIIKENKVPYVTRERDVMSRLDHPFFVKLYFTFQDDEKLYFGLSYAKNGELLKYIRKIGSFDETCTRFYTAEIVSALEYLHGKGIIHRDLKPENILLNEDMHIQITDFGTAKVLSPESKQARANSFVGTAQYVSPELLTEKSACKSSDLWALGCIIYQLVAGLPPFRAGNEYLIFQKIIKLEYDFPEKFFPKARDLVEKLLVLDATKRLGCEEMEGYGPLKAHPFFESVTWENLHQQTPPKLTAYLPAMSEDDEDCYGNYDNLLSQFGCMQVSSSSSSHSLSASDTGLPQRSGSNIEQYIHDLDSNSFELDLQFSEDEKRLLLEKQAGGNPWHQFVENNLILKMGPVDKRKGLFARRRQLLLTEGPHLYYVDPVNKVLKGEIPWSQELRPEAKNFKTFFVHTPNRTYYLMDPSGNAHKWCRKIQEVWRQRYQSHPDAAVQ
Experimental: (§1) FIG. 12. […] In panels A and C, the assays were terminated by making the incubations 1% (by vol) in TRITON X-100™ (see Ref 21), and the increase in specific activity of GST-PKBα was determined. In panels B and D, the reactions were terminated by making the solutions 1% in SDS, the samples were subjected to SDS/polyacrylamide gel electrophoresis, and the phosphorylation was assessed by autoradiography of the Coomassie blue-stained band corresponding to GST-PKBα.
(§2) One unit of PDK1 activity was defined as that amount required to increase the basal activity of GST-PKBα by 1 unit of activity in one min.

[4] = tested on: GST-PKBα; assay: Activation of GST-PKBα after stimulation of transfected 293 cells; format: cell-based, human; settings: versus unstimulated 293 cells
Excerpt: Expression of GST-PKBα in 293 cells. The DNA sequence encoding PKBα was subcloned into the eukaryotic expression vector PEBG2T that has been used to overexpress GST-fusion proteins in eukaryotic cells under an EF1α promoter. A PCR reaction was set up to generate a full length cDNA encoding the PKBα gene with a BamH1site at the 5′ end of the cDNA that is in frame with the GST sequence of the PEBG2T vector and the ATG initiation codon of PKBα, and a KpnI site at the 3′ end, using the human PCMV5-HA-PKBα plasmid. The DNA sequence of the BamH1/KpnI cDNA fragment was checked and then subcloned into the unique BamH1/KpnI restriction sites on the pEBG 2T expression vector. In order to prepare GST-PKBα, 40, 10 cm diameter dishes of human embryonic kidney 293 cells were cultured and each dish transfected with 20 μg of GST PKBα expression construct using the modified calcium phosphate method described previously for overexpression of haemaglutinin tagged PKBα in 293 cells. […]

[5] = tested on: PDK1; assay: Phosphorylation of GST-PKBα by PDK1 with [γ32P]ATP; format: biochemical, rabbit; settings: lipid 10 μM in PtdCho/PtdSer vesicles
Experimental: Solutions were stored at 4° C. at concentrations 10-fold higher than those required in the assay and used within 2-4 days.
Phosphorylation of GST-PKB ? by PDK1. The incubations were identical to the Stage 1 described above except that [γ^32P] ATP (200-400 cpm/pmol) was used instead of unlabelled ATP. The reactions were terminated by making the solution 1% (by mass) in SDS. […] The Coomassie blue-staining bands corresponding to GST-PKBα were excised and the ^32P-radioactivity associated with each band was quantified.

[6] = target: T3, GST-DSTPK61 (Drosophila melanogaster, UniProt Q9W0V1); assay: GST-DSTPK61 assay: activation and phosphorylation of GST-PKBα; format: biochemical; settings: lipid 10 μM in PtdCho/PtdSer vesicles
T3 construct: residues 1-752 of DSTPK61 in E. coli as fusion proteins; made in house; host or cells: E. coli (pGEX-3X)
Experimental: as §1, §2

[7] = target: PKB (Homo sapiens, UniProt P31749); settings: cited from earlier work
PKB, sequence (P31749 whole entry, species assumed): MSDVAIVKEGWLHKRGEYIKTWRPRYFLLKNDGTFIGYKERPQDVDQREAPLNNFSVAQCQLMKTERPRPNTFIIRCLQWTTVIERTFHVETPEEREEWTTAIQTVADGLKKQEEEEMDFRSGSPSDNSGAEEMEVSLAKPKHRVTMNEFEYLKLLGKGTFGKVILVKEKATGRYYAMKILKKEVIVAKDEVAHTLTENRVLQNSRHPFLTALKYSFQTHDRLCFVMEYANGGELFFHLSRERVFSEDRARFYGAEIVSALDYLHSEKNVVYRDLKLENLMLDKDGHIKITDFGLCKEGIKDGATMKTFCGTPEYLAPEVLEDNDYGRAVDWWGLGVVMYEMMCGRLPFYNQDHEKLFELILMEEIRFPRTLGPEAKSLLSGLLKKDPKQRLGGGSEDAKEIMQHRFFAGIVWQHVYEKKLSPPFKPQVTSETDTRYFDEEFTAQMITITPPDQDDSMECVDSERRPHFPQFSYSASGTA

T1 sequence (P31749 whole entry partner, the tested form may be a part): as the sequence (P31749 whole entry, species assumed) above
T1 sequence (O15530 1-450, stated change not applied): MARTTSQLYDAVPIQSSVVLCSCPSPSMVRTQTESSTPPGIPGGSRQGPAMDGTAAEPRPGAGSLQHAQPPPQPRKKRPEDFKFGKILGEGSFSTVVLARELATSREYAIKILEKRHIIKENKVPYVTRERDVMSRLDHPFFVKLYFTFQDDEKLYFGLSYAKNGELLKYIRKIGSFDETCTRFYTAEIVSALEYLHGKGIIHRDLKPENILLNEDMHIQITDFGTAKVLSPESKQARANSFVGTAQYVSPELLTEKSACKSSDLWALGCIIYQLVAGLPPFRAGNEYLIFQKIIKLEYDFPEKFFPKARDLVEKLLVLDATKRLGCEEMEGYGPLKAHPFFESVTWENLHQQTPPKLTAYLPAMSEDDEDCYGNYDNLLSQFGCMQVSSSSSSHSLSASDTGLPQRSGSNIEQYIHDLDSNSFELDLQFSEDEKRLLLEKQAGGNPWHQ
T3 sequence (Q9W0V1 85-836 Q200H/Q201E/Q317A/G443R): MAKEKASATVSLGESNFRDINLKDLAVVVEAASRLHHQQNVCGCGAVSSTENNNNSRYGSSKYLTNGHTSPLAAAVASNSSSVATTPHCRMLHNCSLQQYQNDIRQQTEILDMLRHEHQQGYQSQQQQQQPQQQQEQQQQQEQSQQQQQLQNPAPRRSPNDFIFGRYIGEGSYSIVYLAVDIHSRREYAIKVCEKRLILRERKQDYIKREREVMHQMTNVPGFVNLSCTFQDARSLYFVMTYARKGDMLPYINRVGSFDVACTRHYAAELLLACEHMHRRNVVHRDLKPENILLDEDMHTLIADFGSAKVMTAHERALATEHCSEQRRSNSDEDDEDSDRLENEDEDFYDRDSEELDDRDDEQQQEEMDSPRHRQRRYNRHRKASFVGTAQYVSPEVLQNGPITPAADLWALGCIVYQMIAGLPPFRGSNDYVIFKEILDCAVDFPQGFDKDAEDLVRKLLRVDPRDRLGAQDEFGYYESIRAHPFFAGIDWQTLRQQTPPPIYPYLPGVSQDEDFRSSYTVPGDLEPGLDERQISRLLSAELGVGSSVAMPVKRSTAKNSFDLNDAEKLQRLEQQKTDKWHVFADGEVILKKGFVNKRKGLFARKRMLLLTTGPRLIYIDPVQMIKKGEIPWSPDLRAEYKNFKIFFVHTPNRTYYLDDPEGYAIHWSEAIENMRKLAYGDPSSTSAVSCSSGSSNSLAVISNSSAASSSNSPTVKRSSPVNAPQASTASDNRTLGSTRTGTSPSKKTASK

Compound | activation of PDK1 (in words) [1] | fold-activation of GST-PKBα (PDK1 activity) [1] | activation of GST-PKBα by GST-ΔPH-PDK1 (in words) [2] | order of level of activation of the 3-phosphoinositide-dependent kinase (most effective first) [1] | activation and phosphorylation of GST-PKBα by GST-PDK1 (in words) [3] | also measured
CCCCC/C=C\C/C=C\C/C=C\C/C=C\CCCC(=O)O[C@H](COC(=O)CCCCCCCCCCCCCCCCC)COP(=O)(O)O[C@H]1[C@H](O)[C@@H](OP(=O)(O)O)[C@H](OP(=O)(O)O)[C@@H](OP(=O)(O)O)[C@H]1O [Lipid 1, sn-1-stearoyl, 2-arachidonyl D-phosphatidylinositol 3,4,5-trisphosphate] | potently activated PDK1 | 13 fold | activated more effectively | – | – | –
CCCCCCCCCCCCCCCC(=O)OCC(COP(=O)(O)OC1C(O)C(O)C(OP(=O)(O)O)C(OP(=O)(O)O)C1O)OC(=O)CCCCCCCCCCCCCCC (stereo not shown) [Lipid 7, sn-1,2 di-palmitoyl PtdIns(3,4)P2] | as effective as sn-1,2-dipalmitoyl D-PtdIns(3,4,5)P3 | about 6 fold | very poor | 4 | as effective as sn-1,2-dipalmitoyl D-PtdIns(3,4,5)P3 | fold less effective in activating PDK1 than the sn-1-stearoyl-2-arachidonyl and sn-2-arachidonyl-3-stearoyl derivatives [1]: ~3 fold
insulin: insulin used to stimulate 293 cells | – | – | – | – | – | fold activation of GST-PKBα after stimulation of 293 cells [4]: 20 fold
PtdIns(4,5)P2 [Lipid 9] | no significant activation | – | – | – | no activation or phosphorylation | activation of PDK1 (in words) ([1]; listed as PtdIns(4,5)P2): did not activate PDK1 at all; activation of PDK1 (in words) ([1]; listed as lipid 9): did not activate PDK1; phosphorylation of GST-PKBα by PDK1 (in words) [5]: did not activate PDK1 or induce the phosphorylation; activation and phosphorylation of GST-PKBα by GST-DSTPK61 (in words) [6]: no activation or phosphorylation; fold lower affinity of PKB than for PtdIns(3,4,5)P3 or PtdIns(3,4)P2 [7]: 10 fold
CCCCC/C=C\C/C=C\C/C=C\C/C=C\CCCC(=O)OC(COC(=O)CCCCCCCCCCCCCCCCC)COP(=O)(O)OC1C(O)C(OP(=O)(O)O)C(OP(=O)(O)O)C(OP(=O)(O)O)C1O (single isomer, unassigned) [Lipid 2, L-enantiomer of sn-1-stearoyl-2-arachidonyl PtdIns(3,4,5)P3] | no significant activation | – | no activation | 2 | – | fold-activation of GST-PKBα (PDK1 activity) ([1]; 2-arachidonyl PtdIns(3,4,5)P3): 1.7 fold; activation of PDK1 (in words) ([1]; listed as L-enantiomer of sn-1-stearoyl-2-arachidonyl PtdIns(3,4,5)P3): almost ineffective
